The target of one assay is T1, full length human TREX1 (Homo sapiens, UniProt Q9NSU2).
T1 construct: N-terminally His-Tev tagged full length human TREX1; made in house; host or cells: E. coli
T1 sequence (Q9NSU2 1-314): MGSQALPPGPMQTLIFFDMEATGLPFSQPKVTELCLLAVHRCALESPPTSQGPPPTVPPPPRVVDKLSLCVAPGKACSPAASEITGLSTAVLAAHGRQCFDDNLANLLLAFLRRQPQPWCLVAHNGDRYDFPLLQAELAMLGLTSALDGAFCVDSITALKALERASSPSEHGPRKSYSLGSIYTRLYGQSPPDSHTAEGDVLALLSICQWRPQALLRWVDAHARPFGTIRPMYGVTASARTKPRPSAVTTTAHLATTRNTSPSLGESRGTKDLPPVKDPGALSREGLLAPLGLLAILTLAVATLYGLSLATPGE
The assay is described as follows: TREX1 Biochemical Assay (fluorescence, dsDNA substrate degradation). The conditions noted are these: 150 pM TREX1, 60 nM dsDNA substrate, 25 minutes at room temperature. As to the method: Degradation of the dsDNA liberates free fluorophore to produce a fluorescent signal. Specifically, 7.5 μL of N-terminally His-Tev tagged full length human TREX1 (expressed in E. coli and purified in house) in reaction buffer (50 mM Tris (pH 7.4), 150 mM NaCl, 2 mM DTT, 0.1 mg/mL BSA, 0.01% (v/v) Tween-20 and 100 mM MgCl2) was added to a 384-well Black ProxiPlate Plus (Perkin Elmer) which already contained compound (150 nL) at varying concentrations as a 10 point dose-response in DMSO. To this was added 7.5 μL of dsDNA substrate (Strand A: 5′ TEX615/GCT AGG CAG 3′; Strand B: 5′ CTG CCT AGC/IAbRQSp (Integrated DNA Technologies)) in reaction buffer. Final concentrations were 150 pM TREX1, 60 nM dsDNA substrate in reaction buffer with 1.0% DMSO (v/v). After 25 minutes at room temperature, reactions were quenched by the addition of 5 μL of stop buffer (same as reaction buffer plus 200 mM EDTA). Final concentrations in the quenched reaction were 112.5 pM TREX1, 45 nM DNA and 50 mM EDTA in a volume of 20 μL. After a 5-minute incubation at room temperature, plates were read in a laser sourced Envision (Perkin-Elmer), measuring fluorescence at 615 nm following excitation w/570 nm light. IC50 values were calculated by comparing the measured fluorescence at 615 nm ratio relative to control wells pre-quenched w/stop buffer (100% inhibition) and no inhibitor (0% inhibition) controls as using non-linear least square four parameter fits and either Genedata or GraphPad Prism (GraphPad Software, Inc.).

The target in assay [1] is T2, human TREX2 (residues M44-A279) (Homo sapiens, UniProt Q9BQ50).
T2 construct: human TREX2 (residues M44-A279, expressed in E. coli); made in house; host or cells: E. coli
T2 sequence (Q9BQ50 44-279 isoform Q9BQ50-1): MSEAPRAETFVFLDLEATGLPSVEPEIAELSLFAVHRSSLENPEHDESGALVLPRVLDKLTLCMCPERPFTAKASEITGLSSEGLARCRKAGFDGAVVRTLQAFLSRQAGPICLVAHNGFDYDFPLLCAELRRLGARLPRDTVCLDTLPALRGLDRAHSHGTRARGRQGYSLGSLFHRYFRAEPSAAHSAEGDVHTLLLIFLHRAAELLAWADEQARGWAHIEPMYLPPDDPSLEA
Nature of the assay: TREX2 Biochemical Assay (fluorescence, dsDNA substrate degradation). As to conditions: 2.5 nM TREX2, 60 nM dsDNA substrate, 25 minutes at room temperature. As to the method: Degradation of the dsDNA liberates free fluorophore to produce a fluorescent signal. Specifically, 7.5 μL of N-terminally His-Tev tagged human TREX2 (residues M44-A279, expressed in E. coli and purified in house) in reaction buffer (50 mM Tris (pH 7.4), 150 mM NaCl, 2 mM DTT, 0.1 mg/mL BSA, 0.01% (v/v) Tween-20 and 100 mM MgCl2) was added to a 384-well Black ProxiPlate Plus (Perkin Elmer) which already contained compound (150 nL) at varying concentrations as a 10 point dose-response in DMSO. To this was added 7.5 μL of dsDNA substrate (Strand A: 5′ TEX615/GCT AGG CAG 3′; Strand B: 5′ CTG CCT AGC/IAbRQSp (IDT)) in reaction buffer. Final concentrations were 2.5 nM TREX2, 60 nM dsDNA substrate in reaction buffer with 1.0% DMSO (v/v). After 25 minutes at room temperature, reactions were quenched by the addition of 5 μL of stop buffer (same as reaction buffer plus 200 mM EDTA). Final concentrations in the quenched reaction mixture were […] TREX2, 45 nM DNA and 50 mM EDTA in a volume of 20 μL. After a 5-minute incubation at room temperature, plates were read in a laser sourced Envision (Perkin-Elmer), measuring fluorescence at 615 nm following excitation w/570 nm light. IC50 values were calculated by comparing the measured fluorescence at 615 nm ratio relative to control wells pre-quenched w/stop buffer (100% inhibition) and no inhibitor (0% inhibition) controls as using non-linear least square four parameter fits and either Genedata or GraphPad Prism (GraphPad Software, Inc.).

Consider `CN(c1nc(C(=O)Nc2c(F)cccc2F)c(O)c(=O)n1C)C(c1ccccc1)c1ccccc1` [Example 19, 2-(benzhydryl(methyl)amino)-N-(2,6-difluorophenyl)-5-hydroxy-1-methyl-6-oxo-1,6-dihydropyrimidine-4-carboxamide], for which the results for the concentration for half-maximal inhibition (IC50) (at full length human TREX1; in assay [1]) were 1000 to 10000 nM and 10000 to 100000 nM, respectively.
As to `CN(c1nc(C(=O)Nc2ccc(F)c(F)c2)c(O)c(=O)n1C)C(c1ccccc1)c1ccccc1` [Example 20, 2-(benzhydryl(methyl)amino)-N-(3,4-difluorophenyl)-5-hydroxy-1-methyl-6-oxo-1,6-dihydropyrimidine-4-carboxamide], the IC50 against full length human TREX1 is 100 to 1000 nM; in assay [1], less than 1000 nM.
As for `CN(c1nc(C(=O)Nc2cc(F)cc(F)c2)c(O)c(=O)n1C)C(c1ccccc1)c1ccccc1` [Example 21, 2-(benzhydryl(methyl)amino)-N-(3,5-difluorophenyl)-5-hydroxy-1-methyl-6-oxo-1,6-dihydropyrimidine-4-carboxamide], the results for the half-inhibitory concentration (IC50) (on full length human TREX1; in assay [1]) were 100 to 1000 nM and less than 1000 nM, respectively.
As to `CN(c1nc(C(=O)Nc2cccc(F)c2F)c(O)c(=O)n1C)C(c1ccccc1)c1ccccc1` [Example 22, 2-(benzhydryl(methyl)amino)-N-(2,3-difluorophenyl)-5-hydroxy-1-methyl-6-oxo-1,6-dihydropyrimidine-4-carboxamide], the results for the IC50 (on full length human TREX1; in assay [1]) were less than 100 nM and less than 1000 nM, respectively.
Take `CN(c1nc(C(=O)Nc2cc(F)ccn2)c(O)c(=O)n1C)C(c1ccccc1)c1ccccc1` [Example 23, 2-(benzhydryl(methyl)amino)-N-(4-fluoropyridin-2-yl)-5-hydroxy-1-methyl-6-oxo-1,6-dihydropyrimidine-4-carboxamide]: the 50% inhibitory concentration (IC50) (on full length human TREX1; in assay [1]) was 1000 to 10000 nM throughout.
As to `CN(c1nc(C(=O)Nc2cncc(F)c2)c(O)c(=O)n1C)C(c1ccccc1)c1ccccc1` [Example 24, 2-(benzhydryl(methyl)amino)-N-(5-fluoropyridin-3-yl)-5-hydroxy-1-methyl-6-oxo-1,6-dihydropyrimidine-4-carboxamide], the IC50 on full length human TREX1 was in the range of 100 to 1000 nM; in assay [1] it was 1000 to 10000 nM.
`CN(c1nc(C(=O)Nc2ccccn2)c(O)c(=O)n1C)C(c1ccccc1)c1ccccc1` [Example 25, 2-(benzhydryl(methyl)amino)-5-hydroxy-1-methyl-6-oxo-N-(pyridin-2-yl)-1,6-dihydropyrimidine-4-carboxamide]: the values for the IC50 (on full length human TREX1; in assay [1]) were 100 to 1000 nM and less than 1000 nM, respectively.
For `CN(c1nc(C(=O)Nc2cncnc2)c(O)c(=O)n1C)C(c1ccccc1)c1ccccc1` [Example 26, 2-(benzhydryl(methyl)amino)-5-hydroxy-1-methyl-6-oxo-N-(pyrimidin-5-yl)-1,6-dihydropyrimidine-4-carboxamide] the same measures were 1000 to 10000 nM and 1000 to 10000 nM.
As for `CN(c1nc(C(=O)Nc2cccc(C(F)(F)F)c2)c(O)c(=O)n1C)C(c1ccccc1)c1ccccc1` [Example 27, 2-(benzhydryl(methyl)amino)-5-hydroxy-1-methyl-6-oxo-N-(3-(trifluoromethyl)phenyl)-1,6-dihydropyrimidine-4-carboxamide], the half-inhibitory concentration (IC50) against full length human TREX1 was greater than 10000 nM; in assay [1], 10000 to 100000 nM.
For `CN(c1nc(C(=O)Nc2ccc(C(F)(F)F)cc2)c(O)c(=O)n1C)C(c1ccccc1)c1ccccc1` [Example 28, 2-(benzhydryl(methyl)amino)-5-hydroxy-1-methyl-6-oxo-N-(4-(trifluoromethyl)phenyl)-1,6-dihydropyrimidine-4-carboxamide], the values for the IC50 (at full length human TREX1; in assay [1]) were greater than 10000 nM and 10000 to 100000 nM, respectively.
For `CN(c1nc(C(=O)Nc2ccc(F)cc2)c(O)c(=O)n1C)[C@@H](c1ccccc1)c1ccccc1Cl` [Example 30, (S)-2-(((2-chlorophenyl)(phenyl)methyl)(methyl)amino)-N-(4-fluorophenyl)-5-hydroxy-1-methyl-6-oxo-1,6-dihydropyrimidine-4-carboxamide] the same measures were 100 to 1000 nM and less than 1000 nM.
`CN(c1nc(C(=O)Nc2cncs2)c(O)c(=O)n1C)C(c1ccccc1)c1ccccc1` [Example 31, 2-(benzhydryl(methyl)amino)-5-hydroxy-1-methyl-6-oxo-N-(thiazol-5-yl)-1,6-dihydropyrimidine-4-carboxamide]: the results for the IC50 (against full length human TREX1; in assay [1]) were 100 to 1000 nM and 1000 to 10000 nM, respectively.
For `Cc1nocc1NC(=O)c1nc(N(C)C(c2ccccc2)c2ccccc2)n(C)c(=O)c1O` [Example 32, 2-(benzhydryl(methyl)amino)-5-hydroxy-1-methyl-N-(3-methylisoxazol-4-yl)-6-oxo-1,6-dihydropyrimidine-4-carboxamide] the same measures were less than 100 nM and 1000 to 10000 nM.
In the case of `Cc1noc(C)c1NC(=O)c1nc(N(C)C(c2ccccc2)c2ccccc2)n(C)c(=O)c1O` [Example 33, 2-(benzhydryl(methyl)amino)-N-(3,5-dimethylisoxazol-4-yl)-5-hydroxy-1-methyl-6-oxo-1,6-dihydropyrimidine-4-carboxamide], the values for the 50% inhibitory concentration (IC50) (on full length human TREX1; in assay [1]) were 100 to 1000 nM and 10000 to 100000 nM, respectively.
Turning to `CN(c1nc(C(=O)Nc2cnnn2C)c(O)c(=O)n1C)C(c1ccccc1)c1ccccc1` [Example 34, 2-(benzhydryl(methyl)amino)-5-hydroxy-1-methyl-N-(1-methyl-1H-1,2,3-triazol-5-yl)-6-oxo-1,6-dihydropyrimidine-4-carboxamide], the half-inhibitory concentration (IC50) (against full length human TREX1; in assay [1]) was 1000 to 10000 nM each time.
`CN(c1nc(C(=O)Nc2ccnn2C)c(O)c(=O)n1C)C(c1ccccc1)c1ccccc1` [Example 35, 2-(benzhydryl(methyl)amino)-5-hydroxy-1-methyl-N-(1-methyl-1H-pyrazol-5-yl)-6-oxo-1,6-dihydropyrimidine-4-carboxamide]: the values for the IC50 (on full length human TREX1; in assay [1]) were 1000 to 10000 nM and 10000 to 100000 nM, respectively.
Turning to `Cc1oncc1NC(=O)c1nc(N(C)C(c2ccccc2)c2ccccc2)n(C)c(=O)c1O` [Example 36, 2-(benzhydryl(methyl)amino)-5-hydroxy-1-methyl-N-(5-methylisoxazol-4-yl)-6-oxo-1,6-dihydropyrimidine-4-carboxamide], the half-maximal inhibitory concentration (IC50) lay in the range of 100 to 1000 nM against full length human TREX1 and 1000 to 10000 nM in assay [1].
For `Cc1onc(NC(=O)c2nc(N(C)C(c3ccccc3)c3ccccc3)n(C)c(=O)c2O)c1C` [Example 37, 2-(benzhydryl(methyl)amino)-N-(4,5-dimethylisoxazol-3-yl)-5-hydroxy-1-methyl-6-oxo-1,6-dihydropyrimidine-4-carboxamide] the same measures were 1000 to 10000 nM and 10000 to 100000 nM.

One may read the IC50 as the concentration needed to halve the response being measured. Low values mean inhibition by little substance, high ones a need for much substance.

These data come from US20230167070A1, “MODULATORS OF TREX1” (Constellation Pharmaceuticals, Inc., priority 2020, published 2023).
